US5416118A, “Bicyclic amides as inhibitors of acyl-coenzyme A: cholesterol acyl transferase” (Schering Corporation, priority 1993, dated 1995)

Experiments:
cholesteryl esters = assay: In Vivo Assay of Hypolipidemic Agents Using the Hyperlipidemic Hamster; details: Mesocricetus auratus, po, 168 h, oral gavage once daily, 7 days, versus control, read-out: % Reduction in cholesteryl esters; for change in vivo at 50 mg/kg: 50 mpk; for change in vivo at 100 mg/kg: 100 mpk; for change in vivo at 25 mg/kg: 25 mpk
Experimental: In Vivo Assay of Hypolipidemic Agents Using the Hyperlipidemic Hamster
Hamsters are separated into groups of six and given a control cholesterol diet (Pudna Chow #5001 containing 0.5% cholesterol) for seven days. Diet consumption is monitored to determine dietary cholesterol exposure in the face of test compounds. The animals are dosed with the test compound once daily beginning with the initiation of diet. Dosing is by oral gavage of 0.2 mL of corn oil alone (control group) or solution (or suspension) of test compound in corn oil. All animals moribund or in poor physical condition are euthanized. After seven days, the animals are anesthetized by […] of ketamine and sacrificed by decapitation. Blood is collected into vacutainer tubes containing EDTA for plasma lipid analysis and the liver excised for tissue lipid analysis. Data is reported as percent reduction of lipid versus control.
(§1) Using the assay methods described above, the compounds of Examples 1-9 were tested for in vitro ACAT inhibitory activity and for the ability to lower the level of cholesteryl esters in vivo.

ACAT = ACAT Assay (in vitro); assay type: biochemical; details: dose = 10 μM; rat liver microsomes
Experimental: This assay measures the activity of ACAT by measuring the ACAT-mediated transfer of tritiated oleic acid from acyl-CoA to cholesterol to give labelled cholesterol oleate. Rat liver microsomes are used as the source of ACAT. Assays are performed in round bottom microtiterplates using a total incubation volume of 50 μL. Each incubation well receives 10 μL assay buffer (0.5M KHPO4, 10 μM dithiothreitol, pH 7.4), 7.5 μL of 40 mg/mL BSA (Bovine Serum Albumin) and 12.5 μg of microsomal protein. The test compound (in sufficient amount to bring the final concentration to from 0.1 to 25 μM), reference compound, or vehicle control is added and the final volume brought to 47 μL. The microtiterplate is then floated on the surface of a 37° C. water bath for fifteen minutes. Incubations are started by the addition of 3 μL ^3 H-acyl CoA (1 μCi/well, final concentration of 10 μM acyl CoA). The plate is then returned to the water bath for 15 minutes. The incubations are then terminated by application of 15 μL from each incubation to individual lanes on a thin layer plate (Silica Gel GF 20×20 cm). Standards are applied to several lanes so that the cholesterol ester band can be identified. After drying, the plates are eluted with 90:10:1 petroleum ether:ether:HOAc. The standards are visualized via iodine vapor, and the regions corresponding to cholesterol ester are scraped into 7 mL scintillation vials. 4 mL of scintillant are added to each vial, and the radioactivity quantified. Background count is determined by the boiled controls. Full activity is determined by activity in the presence of vehicle. The percent inhibition is calculated by subtracting the background from both control and test samples, and the test value is calculated as a percentage of the control. For IC50 determinations, the inhibition is plotted against drug doses on a log scale and the concentration at which 50% inhibition is obtained is determined.
as §1

Structure (SMILES): COc1ccc([C@@H]2CCc3ccccc3[C@@H]2NC(=O)C(c2ccccc2)c2ccccc2)cc1 (relative stereo) [Example 1, cis-N-[-2-(4'-methoxyphenyl)-1,2,3,4-tetrahydronaphthalen-1-yl]-α-phenylbenzeneacetamide]
- change in vivo at 50 mg/kg (cholesteryl esters): 0%

Structure (SMILES): COc1ccccc1[C@H]1CCc2ccccc2[C@@H]1NC(=O)C(c1ccccc1)c1ccccc1 (relative stereo) [Example 1B]
- change in vivo at 50 mg/kg (cholesteryl esters): 21%

Structure (SMILES): COc1cccc([C@H]2CCc3ccccc3[C@@H]2NC(=O)C(c2ccccc2)c2ccccc2)c1 (relative stereo) [Example 1D]
- change in vivo at 50 mg/kg (cholesteryl esters): 0%

Structure (SMILES): O=C(N[C@H]1c2ccccc2OC[C@H]1c1ccccc1)C(c1ccccc1)c1ccccc1 (relative stereo) [Example 1E]
- ACAT % Inhibition (ACAT): 40%
- change in vivo at 50 mg/kg (cholesteryl esters): 0%

Structure (SMILES): CCCCCCCCCC(C)(C)C(=O)N[C@H]1c2ccccc2CC[C@@H]1c1ccc(OC)cc1 (relative stereo) [Example 1F]
- ACAT % Inhibition (ACAT): 36%
- change in vivo at 50 mg/kg (cholesteryl esters): 0%

Structure (SMILES): COc1ccc([C@H]2CCc3ccccc3[C@@H]2NC(=O)C(c2ccccc2)c2ccccc2)cc1 (relative stereo) [Example 1G]
- change in vivo at 50 mg/kg (cholesteryl esters): 0%

Structure (SMILES): COc1ccc([C@@H]2CCCc3ccccc3[C@@H]2NC(=O)C(c2ccccc2)c2ccccc2)cc1 (relative stereo) [Example 1H]
- ACAT % Inhibition (ACAT): 84%
- change in vivo at 50 mg/kg (cholesteryl esters): 0%

Structure (SMILES): COc1ccc([C@H]2CCCc3ccccc3[C@@H]2NC(=O)C(c2ccccc2)c2ccccc2)cc1 (relative stereo) [Example 1I]
- ACAT % Inhibition (ACAT): 63%

Structure (SMILES): O=C(N[C@H]1c2ccccc2CC[C@@H]1c1ccncc1)C(c1ccccc1)c1ccccc1 (relative stereo) [Example 1J]
- change in vivo at 50 mg/kg (cholesteryl esters): -39%

Structure (SMILES): O=C(N[C@H]1c2ccccc2OC[C@@H]1c1ccccc1)C(c1ccccc1)c1ccccc1 (relative stereo) [Example 1M]
- ACAT % Inhibition (ACAT): 85%
- change in vivo at 50 mg/kg (cholesteryl esters): 0%

Structure (SMILES): COc1ccc([C@H]2CCc3ccc(OC)cc3[C@@H]2NC(=O)C(c2ccccc2)c2ccccc2)cc1 (relative stereo) [Example 1R]
- change in vivo at 50 mg/kg (cholesteryl esters): 0%

Structure (SMILES): COc1ccc([C@@H]2Cc3ccccc3[C@@H]2NC(=O)C(c2ccccc2)c2ccccc2)cc1 (relative stereo) [Example 2, cis-N-[2-(4'-methoxyphenyl)indanyl]-α-phenylbenzeneacetamide]
- ACAT % Inhibition (ACAT): 96%
- change in vivo at 50 mg/kg (cholesteryl esters): -17%

Structure (SMILES): COc1cccc([C@@H]2Cc3ccccc3[C@@H]2NC(=O)C(c2ccccc2)c2ccccc2)c1 (relative stereo) [Example 2A]
- ACAT % Inhibition (ACAT): 99%
- change in vivo at 50 mg/kg (cholesteryl esters): 0%

Structure (SMILES): COc1cccc([C@H]2Cc3ccccc3[C@@H]2NC(=O)C(c2ccccc2)c2ccccc2)c1 (relative stereo) [Example 2B]
- ACAT % Inhibition (ACAT): 94%

Structure (SMILES): O=C(N[C@H]1c2ccccc2C[C@H]1c1cccc([N+](=O)[O-])c1)C(c1ccccc1)c1ccccc1 (relative stereo) [Example 2C]
- ACAT % Inhibition (ACAT): 99%
- change in vivo at 50 mg/kg (cholesteryl esters): 0%

Structure (SMILES): O=C(N[C@H]1c2ccccc2C[C@@H]1c1cccc([N+](=O)[O-])c1)C(c1ccccc1)c1ccccc1 (relative stereo) [Example 2D]
- ACAT % Inhibition (ACAT): 90%

Structure (SMILES): COc1ccc([C@H]2Cc3ccccc3[C@@H]2NC(=O)C(c2ccccc2)c2ccccc2)cc1 (relative stereo) [Example 2F]
- ACAT % Inhibition (ACAT): 19%
- change in vivo at 50 mg/kg (cholesteryl esters): 0%

Structure (SMILES): CCCCCCCC/C=C\CCCCCCCC(=O)N[C@H]1c2ccccc2CC[C@H]1c1ccc(OC)cc1 (relative stereo) [Example 2G]
- ACAT % Inhibition (ACAT): 73%
- change in vivo at 100 mg/kg (cholesteryl esters): 0%

Structure (SMILES): CCCCCCCC/C=C\CCCCCCCC(=O)N[C@H]1c2ccccc2CC[C@@H]1c1ccc(OC)cc1 (relative stereo) [Example 2H]
- ACAT % Inhibition (ACAT): 81%
- change in vivo at 100 mg/kg (cholesteryl esters): 0%

Structure (SMILES): O=C(N[C@H]1c2ccccc2C[C@H]1c1ccc([N+](=O)[O-])cc1)C(c1ccccc1)c1ccccc1 (relative stereo) [Example 2I]
- ACAT % Inhibition (ACAT): 51%

Structure (SMILES): O=C(N[C@H]1c2ccccc2C[C@@H]1c1ccc([N+](=O)[O-])cc1)C(c1ccccc1)c1ccccc1 (relative stereo) [Example 2J]
- ACAT % Inhibition (ACAT): -12%

Structure (SMILES): COc1ccc2c(c1)C[C@H](c1ccccc1)[C@H]2NC(=O)C(c1ccccc1)c1ccccc1 (relative stereo) [Example 2K]
- ACAT % Inhibition (ACAT): 90%
- change in vivo at 25 mg/kg (cholesteryl esters): 17%

Structure (SMILES): CCCCCCCC/C=C\CCCCCCCC(=O)N[C@H]1c2ccccc2CC[C@H]1c1ccccc1 (relative stereo) [Example 2L]
- ACAT % Inhibition (ACAT): 66%

Structure (SMILES): CCCCCCCC/C=C\CCCCCCCC(=O)N[C@H]1c2ccccc2CC[C@@H]1c1ccccc1 (relative stereo) [Example 2M]
- ACAT % Inhibition (ACAT): 99%
- change in vivo at 100 mg/kg (cholesteryl esters): 0%

Structure (SMILES): CCCCCCCC/C=C\CCCCCCCC(=O)N[C@H]1c2ccccc2OC[C@@H]1c1ccccc1 (relative stereo) [Example 2O]
- ACAT % Inhibition (ACAT): 87%

Structure (SMILES): Nc1ccc([C@H]2CCc3ccccc3[C@@H]2NC(=O)C(c2ccccc2)c2ccccc2)cc1 (relative stereo) [Example 2P]
- change in vivo at 25 mg/kg (cholesteryl esters): -15%

Structure (SMILES): COc1ccc2c(c1)[C@H](NC(=O)C(c1ccccc1)c1ccccc1)[C@H](c1ccccc1)C2 (relative stereo) [Example 2Q]
- ACAT % Inhibition (ACAT): 16%

Structure (SMILES): COc1ccc2c(c1)[C@H](NC(=O)C(c1ccccc1)c1ccccc1)[C@@H](c1ccccc1)C2 (relative stereo) [Example 2T]
- ACAT % Inhibition (ACAT): 15%

Structure (SMILES): O=C(N[C@@H]1c2ccccc2CC[C@H]1c1ccccc1O)C(c1ccccc1)c1ccccc1 (relative stereo) [Example 3A]
- change in vivo at 50 mg/kg (cholesteryl esters): 0%

Structure (SMILES): O=C(N[C@@H]1c2c(O)cccc2CC[C@H]1c1ccccc1)C(c1ccccc1)c1ccccc1 (relative stereo) [Example 3CC]
- change in vivo at 50 mg/kg (cholesteryl esters): -20%

Structure (SMILES): O=C(N[C@@H]1c2ccccc2CCC[C@H]1c1ccc(O)cc1)C(c1ccccc1)c1ccccc1 (relative stereo) [Example 3J]
- change in vivo at 50 mg/kg (cholesteryl esters): -61%

Structure (SMILES): O=C(N[C@@H]1c2ccc(O)cc2C[C@H]1c1ccccc1)C(c1ccccc1)c1ccccc1 (relative stereo) [Example 3L]
- ACAT % Inhibition (ACAT): 93%

Structure (SMILES): O=C(N[C@@H]1c2ccccc2CCC[C@@H]1c1ccc(O)cc1)C(c1ccccc1)c1ccccc1 (relative stereo) [Example 3R]
- change in vivo at 50 mg/kg (cholesteryl esters): 0%

Structure (SMILES): O=C(N[C@@H]1c2cccc(O)c2CC[C@H]1c1ccccc1)C(c1ccccc1)c1ccccc1 (relative stereo) [Example 3S]
- change in vivo at 50 mg/kg (cholesteryl esters): 0%

Structure (SMILES): O=C(N[C@@H]1c2cccc(O)c2CC[C@@H]1c1ccccc1)C(c1ccccc1)c1ccccc1 (relative stereo) [Example 3T]
- change in vivo at 50 mg/kg (cholesteryl esters): 0%

Structure (SMILES): O=C(N[C@@H]1c2cc(O)ccc2CC[C@H]1c1ccc(O)cc1)C(c1ccccc1)c1ccccc1 (relative stereo) [Example 3U]
- change in vivo at 10 mg/kg (cholesteryl esters; 10 mpk): -60%
- change in vivo at 30 mg/kg (cholesteryl esters; 30 mpk): -86%
- change in vivo at 50 mg/kg (cholesteryl esters): -97%

Structure (SMILES): O=C(N[C@@H]1c2cc(O)ccc2CC[C@@H]1c1ccc(O)cc1)C(c1ccccc1)c1ccccc1 (relative stereo) [Example 3V]
- change in vivo at 50 mg/kg (cholesteryl esters): 0%

Structure (SMILES): O=C(N[C@@H]1c2c(O)cccc2C[C@@H]1c1ccccc1)C(c1ccccc1)c1ccccc1 (relative stereo) [Example 3X]
- ACAT % Inhibition (ACAT): 97%

Structure (SMILES): Nc1ccc([C@@H]2Cc3ccccc3[C@H]2NC(=O)C(c2ccccc2)c2ccccc2)cc1 (relative stereo) [Example 5, trans-N-[2-(4'-aminophenyl)indanyl]-α-phenylbenzeneacetamide]
- ACAT % Inhibition (ACAT): 94%

Structure (SMILES): O=C(N[C@@H]1c2ccccc2C[C@@H]1c1ccc(O)cc1)C(c1ccccc1)c1ccccc1 (single isomer, unassigned) [Example 3BB]
- ACAT % Inhibition (ACAT): < 0%

Structure (SMILES): O=C(N[C@@H]1c2cc(O)ccc2CC[C@H]1c1ccccc1)C(c1ccccc1)c1ccccc1 (single isomer, unassigned) [Example 3Y]
- ACAT % Inhibition (ACAT): 83%

Structure (SMILES): O=C(N[C@@H]1c2cc(O)ccc2CC[C@H]1c1ccccc1)C(c1ccccc1)c1ccccc1 (single isomer, unassigned) [Example 3Z]
- ACAT % Inhibition (ACAT): 92%
